Patent US7462324B2, “Measurement device and method for measuring electric signal from biological sample” (Panasonic Corporation, priority 2002, dated 2008)

Test system: rat artery smooth muscles (SM)
Experiment: Intracellular potential of a rat artery smooth muscle cell on carbachol administration, voltage clamp with measurement device 10
Format: cell-based
Experimental: As the biological sample 21, rat artery smooth muscles (SM) were used. As a solution to be injected into the measurement device 10, DMEM culture medium to which 10% FBS (fetal bovine serum) was added was used. An SM cell was inserted into the microelectrode 1 by performing the same operation as that of EXAMPLE 2, and then an intracellular potential when 100 μM carbachol, which was an analog of acetylcholine, was introduced as a solution was measured by a voltage clamp method.
The results were similar to those obtained by the known intracellular recording method.
FIG. 13 is a histogram of standard deviation per 10 ms before and after a carbachol administration. The mean value and half width of the graph, obtained by approximating the histogram before and after a carbachol administration with a normal distribution are 0.185 and 0.04, respectively, before the administration and 0.545 and 0.21, respectively, after the administration. […] The reason for the increase was that by the administration of carbachol, ion channels of the […] was activated, and changes in conductance due to switching of the activated ion channels is expressed by voltage change. From FIG. 13, it was confirmed that with the measurement device 10, ion channel properties for a nerve stimulator can be determined as in the same manner in the known intracellular recording method.

## C[N+](C)(C)CCOC(N)=O [carbachol]
100 μM carbachol introduced as a solution, SM cell on microelectrode, DMEM + 10% FBS, FIG. 12
  action potential in response to carbachol: detected
After carbachol administration (100 μM), before administration 0.185, FIG. 13
  mean value of histogram of standard deviation per 10 ms of the action potential (normal distribution approximation): 0.545
